Data taken from PubChem BioAssay AID1963985 (Molecular Pharmacology Branch, DTP, NCI, 2024).

System: 252836-082-R-J2-PDC tumor spheroids, viability
Assay: Anticancer human tumor 252836-082-R-J2-PDC patient-derived head and neck squamous cell carcinoma cell line growth inhibition [PI3K]
Conditions: spheroids with HUVEC and MSC; for IC50: curve of first compound; for viability, T/C: stronger effect = lower value
Method in brief: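 Multi-cell spheroids combine tumor cells with HUVEC and human MSCs, treated with targeted agents alone or with inavolisib, alpelisib, duvelisib or copanlisib. Concentrations fall in half-log steps from at or near clinical Cmax, or from 10 microM where Cmax is unknown; viability read-out.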

[1] = second compound 0.0316 µM, first compound 0.0316 µM
[2] = second compound 0.0316 µM, first compound 0.1 µM
[3] = second compound 0.1 µM, first compound 0.0316 µM
[4] = second compound 0.1 µM, first compound 0.1 µM
[5] = second compound 0.316 µM, first compound 0.0316 µM
[6] = second compound 0.316 µM, first compound 0.1 µM
[7] = second compound 1 µM, first compound 0.0316 µM
[8] = second compound 1 µM, first compound 0.1 µM
[9] = second compound 3.16 µM, first compound 0.0316 µM
[10] = second compound 3.16 µM, first compound 0.1 µM
[11] = second compound 10 µM, first compound 0.0316 µM
[12] = second compound 10 µM, first compound 0.1 µM
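Note: spheroids exposed to agents for seven days before readout.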
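Throughout, for viability, T/C: percent of vehicle DMSO control viability so 100% = untreated growth.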

C#Cc1c(F)ccc2cc(O)cc(-c3ncc4c(N5CC6CCC(C5)N6)nc(OCC56CCCN5CC(F)C6)nc4c3F)c12 (centres undefined) + Cc1nc(NC(=O)N2CCCC2C(N)=O)sc1-c1ccnc(C(C)(C)C(F)(F)F)c1
IC50 (second compound 0.0316 µM): > 10000 nM
IC50 (second compound 0.1 µM): > 10000 nM
IC50 (second compound 0.316 µM): > 10000 nM
IC50 (second compound 1 µM): 4450 nM
IC50 (second compound 3.16 µM): < 31.6 nM
IC50 (second compound 10 µM): < 31.6 nM
viability, T/C [1]: 96.4%
viability, T/C [2]: 82.3%
viability, T/C (second compound 0.0316 µM, first compound 0.316 µM): 98.8%
viability, T/C (second compound 0.0316 µM, first compound 1 µM): 76.5%
viability, T/C (second compound 0.0316 µM, first compound 3.16 µM): 72.2%
viability, T/C (second compound 0.0316 µM, first compound 10 µM): 69.2%
viability, T/C [3]: 92.4%
viability, T/C [4]: 78.4%
viability, T/C (second compound 0.1 µM, first compound 0.316 µM): 76.9%
viability, T/C (second compound 0.1 µM, first compound 1 µM): 78%
viability, T/C (second compound 0.1 µM, first compound 3.16 µM): 63.6%
viability, T/C (second compound 0.1 µM, first compound 10 µM): 67.4%
viability, T/C [5]: 70.2%
viability, T/C [6]: 64.7%
viability, T/C (second compound 0.316 µM, first compound 0.316 µM): 71.1%
viability, T/C (second compound 0.316 µM, first compound 1 µM): 58.4%
viability, T/C (second compound 0.316 µM, first compound 3.16 µM): 60.8%
viability, T/C (second compound 0.316 µM, first compound 10 µM): 53.5%
viability, T/C [7]: 54.4%
viability, T/C [8]: 54.9%
viability, T/C (second compound 1 µM, first compound 0.316 µM): 53.9%
viability, T/C (second compound 1 µM, first compound 1 µM): 60.4%
viability, T/C (second compound 1 µM, first compound 3.16 µM): 54.9%
viability, T/C (second compound 1 µM, first compound 10 µM): 37.7%
viability, T/C [9]: 41.9%
viability, T/C [10]: 40.6%
viability, T/C (second compound 3.16 µM, first compound 0.316 µM): 44.5%
viability, T/C (second compound 3.16 µM, first compound 1 µM): 40.9%
viability, T/C (second compound 3.16 µM, first compound 3.16 µM): 39.7%
viability, T/C (second compound 3.16 µM, first compound 10 µM): 22%
viability, T/C [11]: 36.3%
viability, T/C [12]: 35.2%
viability, T/C (second compound 10 µM, first compound 0.316 µM): 31.5%
viability, T/C (second compound 10 µM, first compound 1 µM): 25%
viability, T/C (second compound 10 µM, first compound 3.16 µM): 25.7%
viability, T/C (second compound 10 µM, first compound 10 µM): 9.29%

CC(C)n1nc(-c2ccc3oc(N)nc3c2)c2c(N)ncnc21 + CC(Nc1ncnc2nc[nH]c12)c1cc2cccc(Cl)c2c(=O)n1-c1ccccc1
IC50 (second compound 0.0316 µM): 47.5 nM
IC50 (second compound 0.1 µM): 37.1 nM
IC50 (second compound 0.316 µM): 34.1 nM
IC50 (second compound 1 µM): 32.5 nM
IC50 (second compound 3.16 µM): 21.5 nM
IC50 (second compound 10 µM): 11.1 nM
viability, T/C (second compound 0.0316 µM, first compound 0.000316 µM): 91.7%
viability, T/C (second compound 0.0316 µM, first compound 0.001 µM): 93.5%
viability, T/C (second compound 0.0316 µM, first compound 0.00316 µM): 89.5%
viability, T/C (second compound 0.0316 µM, first compound 0.01 µM): 95.5%
viability, T/C [1]: 65.6%
viability, T/C [2]: 21.7%
viability, T/C (second compound 0.1 µM, first compound 0.000316 µM): 94.1%
viability, T/C (second compound 0.1 µM, first compound 0.001 µM): 97.9%
viability, T/C (second compound 0.1 µM, first compound 0.00316 µM): 71.1%
viability, T/C (second compound 0.1 µM, first compound 0.01 µM): 77.5%
viability, T/C [3]: 55.1%
viability, T/C [4]: 24.2%
viability, T/C (second compound 0.316 µM, first compound 0.000316 µM): 95.3%
viability, T/C (second compound 0.316 µM, first compound 0.001 µM): 79%
viability, T/C (second compound 0.316 µM, first compound 0.00316 µM): 83.5%
viability, T/C (second compound 0.316 µM, first compound 0.01 µM): 87.4%
viability, T/C [5]: 52%
viability, T/C [6]: 22.4%
viability, T/C (second compound 1 µM, first compound 0.000316 µM): 96%
viability, T/C (second compound 1 µM, first compound 0.001 µM): 88.6%
viability, T/C (second compound 1 µM, first compound 0.00316 µM): 83.5%
viability, T/C (second compound 1 µM, first compound 0.01 µM): 69.8%
viability, T/C [7]: 50.8%
viability, T/C [8]: 22.7%
viability, T/C (second compound 3.16 µM, first compound 0.000316 µM): 79.2%
viability, T/C (second compound 3.16 µM, first compound 0.001 µM): 76.9%
viability, T/C (second compound 3.16 µM, first compound 0.00316 µM): 78.5%
viability, T/C (second compound 3.16 µM, first compound 0.01 µM): 64.2%
viability, T/C [9]: 42.8%
viability, T/C [10]: 22%
viability, T/C (second compound 10 µM, first compound 0.000316 µM): 74.1%
viability, T/C (second compound 10 µM, first compound 0.001 µM): 60%
viability, T/C (second compound 10 µM, first compound 0.00316 µM): 68.1%
viability, T/C (second compound 10 µM, first compound 0.01 µM): 47%
viability, T/C [11]: 39.4%
viability, T/C [12]: 18%
